From PubChem BioAssay (NCI)
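Step 1: Grow cells in 96-well plates. Step 2: Expose to compound for 48 hours at 5 concentrations. Step 3: Interpolate endpoints linearly; if unreached, use highest concentration. TGI: total growth inhibition.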 Where a SMILES comes first, the peptide text is derived from it. The star is where a group is joined. Boc = CC(C)(C)OC(=O)*

Key:
Experiment in all cases: NCI-60 cell line screen, 48 h
786-0 renal = tested on: 786-0 renal
A549 NSCLC = tested on: A549 NSCLC
CCRF-CEM leukemia = tested on: CCRF-CEM leukemia
COLO 205 colon = tested on: COLO 205 colon
EKVX NSCLC = tested on: EKVX NSCLC
HCT-15 colon = tested on: HCT-15 colon
HL-60(TB) leukemia = tested on: HL-60(TB) leukemia
HOP-92 NSCLC = tested on: HOP-92 NSCLC
KM12 colon = tested on: KM12 colon
M14 melanoma = tested on: M14 melanoma
MDA-MB-231 breast = tested on: MDA-MB-231 breast
MDA-MB-435 = tested on: MDA-MB-435
OVCAR-4 ovarian = tested on: OVCAR-4 ovarian
SF-295 CNS = tested on: SF-295 CNS
SF-539 CNS = tested on: SF-539 CNS
SK-OV-3 ovarian = tested on: SK-OV-3 ovarian
SNB-19 CNS = tested on: SNB-19 CNS
SW-620 colon = tested on: SW-620 colon
UO-31 renal = tested on: UO-31 renal
RPMI-8226 leukemia = tested on: RPMI-8226 leukemia

SMILES | TGI (786-0 renal) [µM] | TGI (A549 NSCLC) [µM] | TGI (CCRF-CEM leukemia) [µM] | TGI (COLO 205 colon) [µM] | TGI (EKVX NSCLC) [µM] | TGI (HCT-15 colon) [µM] | TGI (HL-60(TB) leukemia) [µM] | TGI (HOP-92 NSCLC) [µM] | TGI (KM12 colon) [µM] | TGI (M14 melanoma) [µM] | TGI (MDA-MB-231 breast) [µM] | TGI (MDA-MB-435) [µM] | TGI (OVCAR-4 ovarian) [µM] | TGI (SF-295 CNS) [µM] | TGI (SF-539 CNS) [µM] | TGI (SK-OV-3 ovarian) [µM] | TGI (SNB-19 CNS) [µM] | TGI (SW-620 colon) [µM] | TGI (UO-31 renal) [µM] | TGI (RPMI-8226 leukemia) [µM]
CCOCC(NC(=O)C(CC(C)C)NC(=O)OC(C)(C)C)C(N)=O (stereo not drawn) (Boc-Leu-Ser(Et)-NH2; configuration not given here) | > 100 | > 100 | > 100 | > 100 | > 100 | > 100 | > 100 | > 100 | > 100 | > 100 | > 100 | > 100 | > 100 | > 100 | > 100 | > 100 | > 100 | 3.27 | > 100 | –
NC12CC3CC4C1CC1CC2C(C3)C4(N)C1 | > 100 | > 100 | > 100 | > 100 | > 100 | > 100 | > 100 | > 100 | > 100 | > 100 | > 100 | > 100 | > 100 | > 100 | – | > 100 | > 100 | > 100 | > 100 | –
O=C(O)c1cc(O)c2c(c1)Cc1cccc(O)c1C2=O | 92.2 | > 100 | > 100 | 57.4 | 80 | 33 | 47.2 | 41.3 | – | 55.2 | 52.4 | > 100 | > 100 | 50.5 | – | > 100 | 95.1 | > 100 | 34.2 | 53.2
O=c1c(-c2ccccc2Cl)coc2cc(F)ccc12 | > 100 | > 100 | > 100 | > 100 | > 100 | > 100 | 31.2 | 87.1 | 71.8 | 55.6 | 67.3 | 4.31 | > 100 | 48.6 | 31.6 | > 100 | > 100 | > 100 | > 100 | –
Cc1ccc(/C=N/NC2=NCCN2)s1 | > 100 | > 100 | – | > 100 | > 100 | > 100 | > 100 | > 100 | > 100 | > 100 | > 100 | > 100 | > 100 | > 100 | > 100 | > 100 | > 100 | > 100 | > 100 | > 100
Cc1ccc(S(=O)(=O)/N=C(\[O-])C2=C(c3ccccc3)NN(C)c3nc4cccc[n+]4nc32)cc1 | > 100 | > 100 | > 100 | 53.3 | > 100 | > 100 | > 100 | 81.9 | > 100 | > 100 | > 100 | > 100 | > 100 | – | > 100 | – | > 100 | > 100 | > 100 | > 100
C/C(=N\O)c1cccc(Nc2nc3ccccc3c3occc23)c1 | 26.7 | 32.5 | 31 | 26.4 | 25.6 | 22.4 | 61.1 | 20.2 | 27.3 | 29.7 | 26.4 | 24 | 30.2 | 22.6 | 29.6 | 28.7 | 39.8 | – | – | 31.8
CC(=O)N1N=C(N)CC1=O | > 100 | > 100 | > 100 | > 100 | > 100 | > 100 | > 100 | > 100 | > 100 | > 100 | > 100 | > 100 | > 100 | > 100 | > 100 | > 100 | > 100 | > 100 | > 100 | –
CN(C)CCNC(=O)c1ccc(NCCCN(C)CCCNc2ccc(C(=O)NCCN(C)C)c3[nH]c4ccc([N+](=O)[O-])cc4c(=O)c23)c2c(=O)c3cc([N+](=O)[O-])ccc3[nH]c12 | 1.14 | 0.64 | 0.145 | 0.502 | – | 1.8 | 1.01 | 0.933 | – | 2.09 | 0.34 | 0.328 | 1.55 | – | – | 1.35 | 0.649 | 0.557 | 2.01 | 0.151
COc1ccccc1N=N/C(=N/NC(=O)c1ccc(C)cc1)c1ccc(N(CCC#N)CCC#N)cc1OC | > 100 | > 100 | 40.9 | 31.1 | 69.2 | > 100 | 26.5 | 95.1 | 84.4 | > 100 | 79.4 | > 100 | > 100 | > 100 | – | > 100 | > 100 | > 100 | > 100 | 33.5
CC(=O)NNC(=S)/N=C/c1c(O)cc(C)oc1=O | > 100 | > 100 | – | > 100 | > 100 | > 100 | > 100 | > 100 | > 100 | > 100 | > 100 | > 100 | > 100 | > 100 | > 100 | > 100 | > 100 | > 100 | > 100 | –
COc1cc2c3c(n(Cc4ccccc4)c(=O)c2cc1OC)-c1ccccc1C3=O | > 100 | > 100 | > 100 | > 100 | > 100 | > 100 | > 100 | > 100 | > 100 | > 100 | > 100 | > 100 | > 100 | > 100 | > 100 | – | > 100 | > 100 | > 100 | > 100
